Assay results published in patent publication US6566087B1, “Phosphodiesterase 8A” (ICOS Corporation, priority 1997, dated 2003).
Where two headings read alike, the source gives them in different places.

Key:
Format in all cases: biochemical
[1] = test system: PDE3; assay: IC50 of isozyme-selective inhibitor for its target family PDE3; details: Target PDE Family PDE3
[2] = biological target: T1, PDE8A (Homo sapiens, UniProt Q9Y233); assay: Inhibition of recombinant PDE8A activity (32P-phosphate release from 32P-cAMP); details: for Fold Difference: IC50 for PDE8 versus IC50 for target family; for IC50: read-out: IC50 for PDE8
T1 construct: made in house; host or cells: yeast strain BJ2-54 lacking endogenous PDE activity; plasmid W48-2ADH2 (ATCC 98552); crude yeast extract
T1 sequence (Q9Y233 290-1055 limits assumed): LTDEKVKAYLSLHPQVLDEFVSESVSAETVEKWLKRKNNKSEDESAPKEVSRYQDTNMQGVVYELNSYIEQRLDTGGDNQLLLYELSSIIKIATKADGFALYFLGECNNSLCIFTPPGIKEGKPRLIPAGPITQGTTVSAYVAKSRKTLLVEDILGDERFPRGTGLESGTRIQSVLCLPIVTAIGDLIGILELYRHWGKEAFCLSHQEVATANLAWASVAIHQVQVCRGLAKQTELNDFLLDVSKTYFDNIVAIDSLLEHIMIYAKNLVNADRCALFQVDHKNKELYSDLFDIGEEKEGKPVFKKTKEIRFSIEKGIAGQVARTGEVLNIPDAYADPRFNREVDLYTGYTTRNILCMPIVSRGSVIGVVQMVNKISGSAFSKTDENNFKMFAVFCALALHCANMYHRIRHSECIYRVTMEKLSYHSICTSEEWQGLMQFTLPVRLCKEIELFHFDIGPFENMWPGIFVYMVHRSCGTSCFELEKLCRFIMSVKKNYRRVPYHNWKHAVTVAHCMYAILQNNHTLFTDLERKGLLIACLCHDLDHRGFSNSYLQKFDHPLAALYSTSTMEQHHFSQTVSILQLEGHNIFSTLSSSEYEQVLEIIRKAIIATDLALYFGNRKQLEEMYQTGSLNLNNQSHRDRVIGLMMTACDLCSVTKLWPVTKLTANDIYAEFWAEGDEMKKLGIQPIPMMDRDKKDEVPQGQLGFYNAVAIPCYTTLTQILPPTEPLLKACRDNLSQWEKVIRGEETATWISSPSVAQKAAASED
Procedure: (§1) Frozen cell pellets (0.06 ml) were thawed and suspended in 0.2 ml lysis buffer containing 100 mM MOPS, pH 8.0, 200 mM NaCl, 2 μM […], 2 mM dithiothreitol, and 10 μg/ml each protease inhibitors pepstatin, leupeptin, and aprotinin. Approximately 0.2 ml of 0.5 mm glass beads were added to the cells which were then lysed with four 30-second cycles of vortexing. The lysate was aspirated and the beads were washed twice with 0.3 ml lysis buffer. The lysate was combined with the washes to generate the yeast extract. In some experiments the lysate was fractionated by centrifugation at 105,000×g for thirty minutes.
(§2) PDE activity was assayed by detection of ^32P-phosphate released from ^32P-cAMP or ^32P-cGMP as described previously [Loughney et al., J. Biol. Chem. 271:796-806 (1996)]. The yeast extract was diluted in 0.5×lysis buffer also containing 0.5 mg/ml bovine serum albumin. Twenty μl of the yeast extract, or diluted yeast extract, was assayed in a 100 μl reaction volume which included an additional 50 mM Tris-HCl (pH 8.0), 5 mM MgCl2 1 μM Zn SO2, and 0.1 mg/ml bovine serum albumin. Protein concentration was assayed by the method of Bradford.

[3] = biological target: PDE5 (Homo sapiens, UniProt O76074); assay: IC50 of isozyme-selective inhibitor for its target family PDE5; details: Target PDE Family PDE5
[4] = biological target: PDE2 (Homo sapiens, UniProt O00408); assay: IC50 of isozyme-selective inhibitor for its target family PDE2; details: Target PDE Family PDE2
Sequence of PDE2 (O00408 whole entry): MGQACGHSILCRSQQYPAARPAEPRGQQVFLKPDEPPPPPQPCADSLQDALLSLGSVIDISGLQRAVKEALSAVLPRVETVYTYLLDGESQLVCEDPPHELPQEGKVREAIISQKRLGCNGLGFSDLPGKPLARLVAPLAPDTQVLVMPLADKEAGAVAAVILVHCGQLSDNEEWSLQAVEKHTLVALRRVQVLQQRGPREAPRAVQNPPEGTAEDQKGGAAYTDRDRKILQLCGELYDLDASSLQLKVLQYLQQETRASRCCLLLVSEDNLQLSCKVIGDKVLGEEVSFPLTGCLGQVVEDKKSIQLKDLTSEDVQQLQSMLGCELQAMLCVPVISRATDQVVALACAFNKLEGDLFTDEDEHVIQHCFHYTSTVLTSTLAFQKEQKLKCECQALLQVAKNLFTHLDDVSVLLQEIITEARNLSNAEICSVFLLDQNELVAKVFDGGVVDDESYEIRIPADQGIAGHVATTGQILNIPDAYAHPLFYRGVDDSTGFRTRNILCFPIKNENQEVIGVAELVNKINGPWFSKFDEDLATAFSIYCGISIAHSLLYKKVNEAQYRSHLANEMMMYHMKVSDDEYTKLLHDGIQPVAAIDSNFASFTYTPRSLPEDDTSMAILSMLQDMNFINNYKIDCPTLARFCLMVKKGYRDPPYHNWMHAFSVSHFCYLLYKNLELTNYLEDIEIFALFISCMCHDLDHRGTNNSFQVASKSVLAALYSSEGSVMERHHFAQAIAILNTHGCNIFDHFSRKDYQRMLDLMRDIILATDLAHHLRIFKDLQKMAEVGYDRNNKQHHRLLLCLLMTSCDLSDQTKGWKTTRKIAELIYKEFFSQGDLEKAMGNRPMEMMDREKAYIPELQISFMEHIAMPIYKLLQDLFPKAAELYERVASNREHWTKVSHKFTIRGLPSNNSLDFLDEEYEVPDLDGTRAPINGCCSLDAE

[5] = test system: known human PDEs (Non-selective); assay: IC50 of non-selective inhibitor for known PDEs; details: read-out: IC50 for Target Family
[6] = biological target: T1, PDE8A; assay: Kinetic analysis of PDE8A hydrolysis of cyclic nucleotide substrates in yeast extract; details: estimated, substrate of PDE8A, yeast lysate
Procedure: as §1
as §2, with “The” for “PDE activity was assayed by detection of ^32P-phosphate released from ^32P-cAMP or ^32P-cGMP as described previously [Loughney et al., J. Biol. Chem. 271:796-806 (1996)]. The”

[7] = cAMP concentration of 60 nM, low Km form only, yeast extract

Fold Difference [2] | IC50 [2, 7] [nM] | Compound | IC50 [2] [nM] | also measured
66 | 1100 | CCCOc1ccc(NS(C)(=O)=O)cc1-c1nc2c(c(C)nn2C)c(=O)[nH]1 [DMPPO] | – | IC50 [3]: 16 nM
31 | – | CCCCCCC(C(C)O)n1cnc2c(N)ncnc21 (stereo not drawn) [EHNA, erythro-9-(2-hydroxy-3-nonyl)adenine] | 65000 | IC50 [4]: 2000 nM
0.12-4.6 | 4600 | CC(C)Cn1c(=O)n(C)c(=O)c2[nH]cnc21 [IBMX, isomethyl butyl xanthine] | – | IC50 [5]: 1000 to 40000 nM
– | – | Nc1nc2c(ncn2[C@@H]2O[C@@H]3COP(=O)(O)O[C@H]3[C@H]2O)c(=O)[nH]1 [cGMP] | – | Km ([6]; read-out: Km, high Km form): 300 µM; Km ([6]; read-out: Km, low Km form): 3 µM

Compound | Fold Difference [2] | IC50 [2, 7] [nM] | IC50 [2] [nM] | also measured
CN(C(=O)CCCOc1ccc2[nH]c(=O)ccc2c1)C1CCCCC1 [Cilostamide] | 750 | – | 12000 | IC50 [1]: 20 nM
